Source: patent publication US12247032B2, “Substituted pyrazolo[1,5-a]pyrimidines as inhibitors of JAK kinases” (Genentech, Inc., priority 2019, dated 2025)

test system: JAK2 pathway (P-STAT5 in TF-1 human erythroleukemia cells + EPO); assay: P-STAT5 TF-1+Erythropoietin (EPO) assay; assay type: cell-based; details: Homo sapiens, TF-1, 0.5 h, TF-1 cells, 30 minutes compound, EPO 30 min; IC50 by four-parameter fit; read-out: Cellular (JAK2 PSTAT5 TF1 + EPO)
Protocol: TF-1 human erythroleukemia cells (ATCC®; Manassas, VA; Catalog No. CRL-2003™) were grown in Roswell Park Memorial Institute (RPMI) medium supplemented with 10% heat-inactivated fetal bovine serum (FBS), 2 ng/mL granulocyte-macrophage colony-stimulating factor, 1× non-essential amino acids (NEAA), and 1 mM sodium pyruvate. The day before the assay, the cultures were transferred to Opti-MEM™, 1×NEAA, 1 mM sodium pyruvate, and 0.5% charcoal-stripped FBS (starve medium). Inhibitor stock solutions (5 mM in DMSO) were serially diluted 1:2 in DMSO to generate a 10-point concentration titration (at 500× test concentration), which was further diluted by a 50-fold dilution in Assay Medium (RPMI containing 1×NEAA and 1 mM sodium pyruvate) to generate a 10× concentration titration (in 2% DMSO). The cells (300,000 cells/well in 35 μL of Assay Medium) were seeded in 384-well Greiner plates. Diluted inhibitor at 10× concentration (5 μL) was added to the cells and the plates were incubated for 30 minutes at 37° C. in a humidified incubator. Cells were stimulated with the human recombinant cytokine at the respective EC90 concentrations, as previously determined for each individual lot. For the phosphorylated signal transducer and activator of transcription 6 (P-STAT6) TF-1+Interleukin-13 (IL-13) assay, 10 μL of 250 ng/mL IL-13 (R&D Systems; Minneapolis, MN) was added to the cells, which were then incubated for 10 minutes at 37° C. For the P-STAT5 TF-1+Erythropoietin (EPO) assay, 10 μL of 110 IU/mL EPO (Gibco Life Technologies, Catalog No. PHC2054) was added to the cells, which were then incubated for 30 min at 37° C. For both assays, the incubation was followed by addition to the cells of 5 μL of ice-cold 10× cell lysis buffer (Cell Signaling Technologies; Danvers, MA; Catalog No. 9803S) containing 1 mM phenylmethylsulfonyl fluoride (PMSF). Assay plates were frozen at −80° C. for a minimum of 1 hour. In the IL-13 assay, P-STAT6 was measured by coating goat anti-rabbit (GAR) plates (Meso Scale Discovery [MSD]; Rockville, MD; Catalog No. MSD L21RA-1) with rabbit anti-human total STAT6 antibody (Cell Signaling Technologies; Catalog No. 9362S), incubating the cell lysates in the coated plates overnight at 4° C., and then detecting with mouse anti-P-STAT6 (Tyr641) Clone 16E12 antibody (MilliporeSigma; Burlington, MA; Catalog No. 05-590, custom labeled by MSD with SULFO-tag) using standard MSD plate processing, washing, and detection protocols. In the EPO assay, P-STAT5 was detected using the phospho-STAT5a,b Whole Cell Lysate Kit (MSD; Catalog No. K150IGD-1). The electrochemiluminescence (ECL) signal of wells was read on the MESO SECTOR S600 (MSD) reader.
Data analysis was performed by subtracting the negative control (cytokine stimulated and 20 μM control inhibitor-treated cells) mean ECL value from the ECL value of all wells, determining percent of control for test compound well ECL values relative to the positive control (cytokine stimulated and DMSO-treated cells) mean ECL value, and determining the IC50 for test compounds with a four-parameter logistic fit model as shown in Equation 4.

Row | Structure (SMILES) | IC50 [nM]
1 | CN(C)CCN1CC(n2nnc(Cn3cc(NC(=O)c4cnn5cccnc45)c(-c4cc(Cl)ccc4OC(F)F)n3)n2)C1 [Example 37, N-[3-[5-chloro-2-(difluoromethoxy)phenyl]-1-[[2-[1-[2-(dimethylamino)ethyl]azetidin-3-yl]tetrazol-5-yl]methyl]pyrazol-4-yl]pyrazolo[1,5-a]pyrimidine-3-carboxamide] | 16
2 | CSc1ccc(OC(F)F)c(-c2nn(Cc3nnn(C4CN(CCCN(C)C)C4)n3)cc2NC(=O)c2cnn3cccnc23)c1 [Example 58, N-[3-[2-(difluoromethoxy)-5-methylsulfanyl-phenyl]-1-[[2-[1-[3-(dimethylamino)propyl]azetidin-3-yl]tetrazol-5-yl]methyl]pyrazol-4-yl]pyrazolo[1,5-a]pyrimidine-3-carboxamide] | 24
3 | CN(C)CCN1CCC(n2nnc(Cn3cc(NC(=O)c4cnn5cccnc45)c(-c4cc(OC(F)F)ccc4OC(F)F)n3)n2)CC1 [Example 61, N-[3-[2,5-bis(difluoromethoxy)phenyl]-1-[[2-[1-[2-(dimethylamino)ethyl]-4-piperidyl]tetrazol-5-yl]methyl]pyrazol-4-yl]pyrazolo[1,5-a]pyrimidine-3-carboxamide] | 36

Other lines, results leading:

Row | IC50 [nM] | Structure (SMILES)
4 | 42 | CN1CCC(N2CC(n3nnc(Cn4cc(NC(=O)c5cnn6cccnc56)c(-c5cc(OC(F)F)ccc5OC(F)F)n4)n3)C2)CC1 [Example 38, N-[3-[2,5-bis(difluoromethoxy)phenyl]-1-[[2-[1-(1-methyl-4-piperidyl)azetidin-3-yl]tetrazol-5-yl]methyl]pyrazol-4-yl]pyrazolo[1,5-a]pyrimidine-3-carboxamide]
5 | 12 | CN(C)[C@H]1C[C@H](N2CC(n3nnc(Cn4cc(NC(=O)c5cnn6cccnc56)c(-c5cc(OC(F)F)ccc5OC(F)F)n4)n3)C2)C1 [Example 70, N-[3-[2,5-bis(difluoromethoxy)phenyl]-1-[[2-[1-[3-(dimethylamino)cyclobutyl]azetidin-3-yl]tetrazol-5-yl]methyl]pyrazol-4-yl]pyrazolo[1,5-a]pyrimidine-3-carboxamide]
6 | 47 | CN1CC(N2CC(n3nnc(Cn4cc(NC(=O)c5cnn6cccnc56)c(-c5cc(OC(F)F)ccc5OC(F)F)n4)n3)C2)C1 [Example 78, N-[3-[2,5-bis(difluoromethoxy)phenyl]-1-[[2-[1-(1-methylazetidin-3-yl)azetidin-3-yl]tetrazol-5-yl]methyl]pyrazol-4-yl]pyrazolo[1,5-a]pyrimidine-3-carboxamide; formic acid]
